Experimental data taken from ChEMBL document CHEMBL1148992, “KB cell culture I. Role in discovery of antitumor agents from higher plants” (1982).
Converted amounts (≈) assume the structure as drawn.

Each molecule was assayed on KB (assay: Cytotoxicity against human KB cells). Conditions: read-out: ED50 (the source's name).
Type: functional

**Q.** With `COc1cc2c[n+](C)c3c4cc5c(cc4ccc3c2cc1OC)OCO5.[Cl-]` [NITIDINE CHLORIDE] as the molecule, how does the EC50 read?
**A.** 4.3 µg/mL

**Q.** How did the EC50 turn out when `COc1ccc2cc1Oc1ccc(cc1)C[C@H]1c3cc(c(OC)cc3CCN1C)Oc1c(OC)c(OC)cc3c1[C@@H](C2)N(C)CC3` was run?
**A.** 10 µg/mL (≈ 16.1 µM)

**Q.** For `COc1cc2c3c(c4ccc(OC)c(OC)c4c2cc1OC)CN1CCC[C@@H]1C3` [TYLOCREBRINE], which EC50 is on record?
**A.** 0.013 µg/mL (≈ 0.033 µM)

**Q.** How did the EC50 turn out when `Cc1c2ccncc2c(C)c2c1[nH]c1ccccc12` [ELLIPTECINE] was run?
**A.** 0.36 µg/mL (≈ 1.46 µM)

**Q.** `COc1ccc2cc1Oc1ccc(cc1)C[C@H]1c3cc(c(OC)cc3CCN1C)Oc1c(OC)c(OC)cc3c1C(C2)N(C)CC3` (mixture of isomers) was tested. Which EC50 did it give?
**A.** 22 µg/mL

**Q.** `CC(C)[C@]12O[C@H]1[C@@H]1O[C@]13[C@]1(O[C@H]1C[C@H]1C4=C(C(=O)OC4)[C@@H](O)C[C@@]13C)[C@@H]2O` [TRIPDIOLIDE] was tested. Which EC50 did it give?
**A.** 2.8 µg/mL (≈ 7.44 µM)

**Q.** For `COc1cc(C[C@H]2c3cc(OC)c(OC)cc3CCN2C)c(Oc2cc3c(cc2OC)-c2c(OC)c(OC)cc4c2[C@H](C3)N(C)CC4)cc1OC` [THALICARPINE], which EC50 is on record?
**A.** 3.7 µg/mL (≈ 5.31 µM)

**Q.** `C[C@H]1C(=O)O[C@@H]2CCN3CC=C(COC(=O)[C@](C)(O)[C@]1(C)O)[C@H]23` [MONOCROTALINE] was tested. Which EC50 did it give?
**A.** > 100 µg/mL

**Q.** Which EC50 does the source give for `COc1cc2cc(c1Cl)N(C)C(=O)C[C@H](OC(=O)[C@H](C)N(C)C(C)=O)[C@]1(C)O[C@H]1[C@H](C)[C@@H]1C[C@@](O)(NC(=O)O1)[C@H](OC)/C=C/C=C(\C)C2` [MAYTANSINE] here?
**A.** 0.51 µg/mL (≈ 0.737 µM)

**Q.** How did the EC50 turn out when `COc1cc2c(c(OC)c1OC)-c1ccc(OC)c(=O)cc1[C@@H](NC(C)=O)CC2` [COLCHICINE] was run?
**A.** 0.23 µg/mL (≈ 0.576 µM)

**Q.** Which EC50 does the source give for `COc1ccc(C[C@H]2C(=O)N[C@@H](C)C(=O)N(C)[C@@H]3C(=O)N(C)[C@@H](Cc4ccc(O)c(c4)Oc4ccc(cc4)[C@@H]3O)C(=O)N[C@@H](C)C(=O)N[C@@H](C)C(=O)N2C)cc1` [BOUVARDIN] here?
**A.** 8.8 µg/mL (≈ 11.4 µM)

**Q.** How did the EC50 turn out when `COC(=O)[C@@]12OC[C@]34[C@H]([C@@H](O)[C@@H]1O)[C@@]1(C)CC(=O)C(O)=C(C)[C@@H]1C[C@H]3OC(=O)[C@H](OC(=O)/C=C(\C)C(C)C)[C@@H]24` [BRUCEANTIN] was run?
**A.** 17 µg/mL (≈ 31 µM)

**Q.** `CC[C@H]1CN2CCc3cc(OC)c(OC)cc3[C@@H]2C[C@@H]1C[C@H]1NCCc2cc(OC)c(OC)cc21` [EMETINE] was tested. Which EC50 did it give?
**A.** < 1 µg/mL

**Q.** Which EC50 does the source give for `CC[C@@]1(O)C(=O)OCc2c1cc1n(c2=O)Cc2cc3ccccc3nc2-1` [CAMPTOTHECIN] here?
**A.** 2.3 µg/mL (≈ 6.6 µM)

**Q.** With `COc1ccc2[nH]c3c(C)c4ccncc4c(C)c3c2c1` as the molecule, how does the EC50 read?
**A.** 8.7 µg/mL (≈ 31.5 µM)

**Q.** `CC[C@]1(O)C[C@H]2CN(CCc3c([nH]c4ccccc34)[C@@](C(=O)OC)(c3cc4c(cc3OC)N(C=O)[C@H]3[C@@](O)(C(=O)OC)[C@H](OC(C)=O)[C@]5(CC)C=CCN6CC[C@]43[C@@H]65)C2)C1` [VINCRISTINE] was tested. Which EC50 did it give?
**A.** 1.3 µg/mL (≈ 1.58 µM)

**Q.** How did the EC50 turn out when `COC(=O)C[C@](O)(CCCC(C)(C)O)C(=O)O[C@@H]1C(OC)=C[C@]23CCCN2CCc2cc4c(cc2[C@H]13)OCO4` [OMACETAXINE MEPESUCCINATE] was run?
**A.** 3.9 µg/mL (≈ 7.15 µM)

**Q.** With `CC(C)[C@]12O[C@H]1[C@@H]1O[C@]13[C@]1(O[C@H]1C[C@H]1C4=C(CC[C@@]13C)C(=O)OC4)[C@@H]2O` [TRIPTOLIDE] as the molecule, how does the EC50 read?
**A.** 2.6 µg/mL (≈ 7.21 µM)

**Q.** Which EC50 does the source give for `CN[C@H]1CCc2cc(OC)c(OC)c(OC)c2-c2ccc(OC)c(=O)cc21` [DEMECOLCINE] here?
**A.** < 0.25 µg/mL

**Q.** How did the EC50 turn out when `CC(=O)O[C@H]1C(=O)O[C@@H]2C[C@H]3C(C)=CC(=O)[C@@H](O)[C@]3(C)[C@H]3[C@]4(O)OC[C@]32[C@@H]1[C@@H](C)[C@H]4O` [HOLACANTHONE] was run?
**A.** 6.8 µg/mL (≈ 15.6 µM)

**Q.** For `CC(=O)O[C@H]1C(=O)[C@@]2(C)[C@H]([C@H](OC(=O)c3ccccc3)[C@]3(O)C[C@H](OC(=O)[C@H](O)[C@@H](NC(=O)c4ccccc4)c4ccccc4)C(C)=C1C3(C)C)[C@]1(OC(C)=O)CO[C@@H]1C[C@@H]2O` [PACLITAXEL], which EC50 is on record?
**A.** 8.9 µg/mL (≈ 10.4 µM)

**Q.** Which EC50 does the source give for `COc1cc([C@@H]2c3cc4c(cc3[C@H](O)[C@H]3COC(=O)[C@H]23)OCO4)cc(OC)c1OC` [PODOFILOX] here?
**A.** < 1 µg/mL

Each molecule was assayed on P388 (assay: In vivo cytotoxicity against mouse P388 cells relative to control). Conditions: not given.
Type: functional

**Q.** For `CC(C)[C@](O)(C(=O)OCC1=CC[N+]2([O-])CC[C@@H](O)[C@@H]12)[C@H](C)O` (stereo partly specified) [INDICINE N-OXIDE], which T/C is on record?
**A.** 262%

**Q.** With `COc1cc2c[n+](C)c3c4cc(OC)c(OC)cc4ccc3c2cc1OC` as the molecule, how does the T/C read?
**A.** 200%

**Q.** Which T/C does the source give for `Cc1cc2c(C(C)C)c(O)c(O)c(C=O)c2c(O)c1-c1c(C)cc2c(C(C)C)c(O)c(O)c(C=O)c2c1O` [GOSSYPOL] here?
**A.** 150%

**Q.** `COc1cc2c(ccc3c4cc(OC)c(OC)cc4c[n+](C)c23)cc1O.[Cl-]` [FAGARONINE] was tested. Which T/C did it give?
**A.** 270%
